Measured values: US11415579B2, “Assay for measuring a rate of reaction between a target and a ligand candidate” (Imperial College Innovations Ltd., priority 2016, dated 2022)

Tests used:
[1] = Kinetic thiol consumption assay with model thiol glutathione; assay type: physicochemical; design: Rate constant with glutathione (k(GSH)): unit not given here; conditions: for Rate constant with glutathione (k(GSH)): 500 μM ligand, 5 μM thiol, phosphate buffer pH 8; for Rate constant with Glutathione: Protein: Glutathione, cysteine position NA, in h-1
Procedure, shortened: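 First, 5 μM glutathione in degassed phosphate buffer (pH 8) receives immobilized TCEP beads (2% v/v). Then acrylamide is added and plates incubate 1 h at room temperature. Finally, fluorescence (380/470 nm) is normalized and fitted to first-order decay for rate constants.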

[2] = biological target: T1, human cyclin-dependent kinase 2 (Cdk2) (Homo sapiens, UniProt P24941); test: Kinetic thiol consumption assay with wild type Cdk2 (C177); assay type: binding; design: key to Rate enhancement, Cdk2 WT: k(Cdk2) divided by k(model thiol); Rate constant with Cdk2 (k(Cdk2)): unit not given here; conditions: for Rate constant with Cdk2 (k(Cdk2)): 500 μM ligand, 5 μM thiol, phosphate buffer pH 8; for Rate enhancement, Cdk2 WT: no additional mutations; for Rate constant with Cdk2 WT: Protein: Cdk2, cysteine position WT, in h^-1; for k(Cdk2)/k(Cdk2_mut) rate enhancement: model thiol Cdk2[C177A, F80C, K278C]; for k(Cdk2)/k(GSH) rate enhancement: model thiol glutathione; for hit classification, Example 2: significant rate enhancement against both model thiols (GSH and mutant Cdk2)
T1 construct: poly-histidine; made in house; host or cells: E. coli
Procedure, shortened: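 His-tagged human Cdk2 (single surface cysteine C177), expressed in E. coli, or a model thiol at 5 μM in degassed phosphate buffer pH 8 was pre-treated with immobilized TCEP beads (2% v/v) before acrylamide addition. Fluorescence (ex/em 380/470 nm) was read after 1 h at room temperature, normalized to DMSO/thiol-only control and plotted versus time.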

Cdk2[C177A, F80C, K278C] = biological target: T2, Cdk2[C177A, F80C, K278C] (Homo sapiens, UniProt P24941, C177A/F80C/K278C); test: Kinetic thiol consumption assay with mutant Cdk2 as model thiol; assay type: binding; design: unit not given here; conditions: 500 μM ligand, 5 μM thiol, phosphate buffer pH 8
T2 construct: poly-histidine; made in house; host or cells: E. coli
Procedure, shortened: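 Model thiol: His-tagged human Cdk2 C177A/F80C/K278C (two engineered surface cysteines), E. coli-expressed, 5 μM in degassed phosphate buffer pH 8 with immobilized TCEP beads (2% v/v). Fluorescence (ex/em 380/470 nm) followed over time at room temperature, normalized to DMSO/thiol control. First-order decay fit gives rate constants.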

Cdk2(C177A, F80C) = biological target: T3, Cdk2(C177A, F80C) (Homo sapiens, UniProt P24941, C177A/F80C); test: Kinetic thiol consumption assay with Cdk2 mutant F80C, incl. kobs versus concentration (Kd, k2); assay type: binding; design: key to Rate enhancement, Cdk2 F80C: Cdk2 rate constant divided by model-thiol rate constant; conditions: additional mutation C177A; for Rate constant with Cdk2 F80C: Protein: Cdk2, cysteine position F80C, in h^-1
T3 construct: poly-histidine; made in house; host or cells: E. coli
Procedure, shortened: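 His-tagged Cdk2(C177A/F80C) from E. coli or model thiol, 5 μM in degassed phosphate buffer pH 8 with TCEP beads, reacted with acrylamide ligands; fluorescence (ex/em 380/470 nm) normalized to DMSO control and fitted to first-order decay for kobs. Kd and k2 obtained from hyperbolic fit of kobs versus ligand concentration.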

Cdk2(H71C) (C177A) = biological target: T4, Cdk2(H71C) (C177A) (Homo sapiens, UniProt P24941, C177A/H71C); test: Kinetic thiol consumption assay with Cdk2 mutant H71C; assay type: binding; design: key to Rate enhancement, Cdk2 H71C: rate constant with Cdk2 ÷ rate constant with model thiol (fold); conditions: additional mutation C177A; for Rate constant with Cdk2 H71C: Protein: Cdk2, cysteine position H71C, in h^-1
T4 construct: poly-histidine; made in house; host or cells: E. coli
Procedure, shortened: (§1)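 5 μM thiol, degassed phosphate pH 8, 2% v/v immobilized TCEP beads; 1 h RT; fluorescence ex 380/em 470 nm; normalized vs DMSO/thiol-only; first-order exponential decay fit → rate constant; Cdk2 k / model-thiol k = rate enhancement per acrylamide.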

Cdk2(S276C) (C177A) = biological target: T5, Cdk2(S276C) (C177A) (Homo sapiens, UniProt P24941, C177A/S276C); test: Kinetic thiol consumption assay with Cdk2 mutant S276C; assay type: binding; design: key to Rate enhancement, Cdk2 S276C: rate constant with Cdk2 ÷ rate constant with model thiol (fold); conditions: additional mutation C177A; for Rate constant with Cdk2 S276C: Protein: Cdk2, cysteine position S276C, in h^-1
T5 construct: poly-histidine; made in house; host or cells: E. coli
Procedure, shortened: as §1

Cdk2(N272C) (C177A) = biological target: T6, Cdk2(N272C) (C177A) (Homo sapiens, UniProt P24941, C177A/N272C); test: Kinetic thiol consumption assay with Cdk2 mutant N272C; assay type: binding; design: key to Rate enhancement, Cdk2 N272: rate constant with Cdk2 ÷ rate constant with model thiol (fold); conditions: for Rate enhancement, Cdk2 N272: Cdk2 N272, additional mutation C177A; for Rate constant with Cdk2 N272C: Protein: Cdk2, cysteine position N272C, additional mutation C177A, in h^-1
T6 construct: poly-histidine; made in house; host or cells: E. coli
Procedure, shortened: as §1

Cdk2(T182C) (C177A) = biological target: T7, Cdk2(T182C) (C177A) (Homo sapiens, UniProt P24941, C177A/T182C); test: Kinetic thiol consumption assay with Cdk2 mutant T182C; assay type: binding; design: key to Rate enhancement, Cdk2 T182C: rate constant with Cdk2 ÷ rate constant with model thiol (fold); conditions: additional mutation C177A; for Rate constant with Cdk2 T182C: Protein: Cdk2, cysteine position T182C, in h^-1
T7 construct: poly-histidine; made in house; host or cells: E. coli
Procedure, shortened: as §1

Cdk2(R122C) (C177A) = biological target: T8, Cdk2(R122C) (C177A) (Homo sapiens, UniProt P24941, C177A/R122C); test: Kinetic thiol consumption assay with Cdk2 mutant R122C; assay type: binding; design: key to Rate enhancement, Cdk2 R122C: rate constant with Cdk2 ÷ rate constant with model thiol (fold); conditions: additional mutation C177A; for Rate constant with Cdk2 R122C: Protein: Cdk2, cysteine position R122C, in h-1
T8 construct: poly-histidine; made in house; host or cells: E. coli
Procedure, shortened: as §1

Cdk2(S181C) (C177A) = biological target: T9, Cdk2(S181C) (C177A) (Homo sapiens, UniProt P24941, C177A/S181C); test: Kinetic thiol consumption assay with Cdk2 mutant S181C; assay type: binding; design: key to Rate enhancement, Cdk2 S181C: rate constant with Cdk2 ÷ rate constant with model thiol (fold); conditions: additional mutation C177A; for Rate constant with Cdk2 S181C: Protein: Cdk2, cysteine position S181C, in h^-1
T9 construct: poly-histidine; made in house; host or cells: E. coli
Procedure, shortened: as §1

Compound | Rate constant with glutathione (k(GSH)) [1] | Rate constant with Glutathione [1] | Rate constant with Cdk2 (k(Cdk2)) [2] | Rate enhancement, Cdk2 WT [2] | Rate constant with Cdk2 WT [2] | k(Cdk2)/k(Cdk2_mut) rate enhancement [2] | k(Cdk2)/k(GSH) rate enhancement [2] | Rate constant with Cdk2[C177A, F80C, K278C] (k(Cdk2_mut)) (Cdk2[C177A, F80C, K278C]) | Rate enhancement, Cdk2 F80C (Cdk2(C177A, F80C)) | Rate constant with Cdk2 F80C (Cdk2(C177A, F80C)) | Rate enhancement, Cdk2 H71C (Cdk2(H71C) (C177A)) | Rate constant with Cdk2 H71C (Cdk2(H71C) (C177A)) | Rate enhancement, Cdk2 S276C (Cdk2(S276C) (C177A)) | Rate constant with Cdk2 S276C (Cdk2(S276C) (C177A)) | Rate enhancement, Cdk2 N272 (Cdk2(N272C) (C177A)) | Rate constant with Cdk2 N272C (Cdk2(N272C) (C177A)) | Rate enhancement, Cdk2 T182C (Cdk2(T182C) (C177A)) | Rate enhancement, Cdk2 R122C (Cdk2(R122C) (C177A)) | Rate constant with Cdk2 R122C (Cdk2(R122C) (C177A)) | Rate enhancement, Cdk2 S181C (Cdk2(S181C) (C177A)) | also measured
C=CC(=O)N1CC(CCN2CCCC2=O)c2ccccc21 (centres unmarked) [CA-089] | 0.04608 | 0.04691 | 0.2034 | 4.336 | 0.2034 | 9.903 | 4.414 | 0.02054 | 1.909 | 0.08953 | 3.475 | 0.163 | 3.061 | 0.1436 | 4.344 | 0.2038 | 16.71 | 0.4622 | 0.02168 | 0.5754 | hit classification, Example 2 [2]: hits; Rate constant with Cdk2 T182C (Cdk2(T182C) (C177A)): 0.784; Rate constant with Cdk2 S181C (Cdk2(S181C) (C177A)): 0.02699
C=CC(=O)N1CCn2c(Cc3ccccc3)nnc2C1 [CA-092] | 0.0817 | 0.08356 | 0.2634 | 3.152 | 0.2634 | 21.31 | 3.224 | 0.01236 | 0.1058 | 0.008842 | 2.689 | 0.2247 | 6.528 | 0.5455 | 7.163 | 0.5985 | 6.483 | 2.269 | 0.1896 | 0.9146 | hit classification, Example 2 [2]: hits; Rate constant with Cdk2 T182C (Cdk2(T182C) (C177A)): 0.5417; Rate constant with Cdk2 S181C (Cdk2(S181C) (C177A)): 0.07642
C=CC(=O)N1CCC2(CCCCCC2)C1 [CA-093] | 0.0074 | 0.01326 | 0.00196 | 0.2573 | 0.003412 | 0.3873 | 0.2651 | 0.00507 | 1.271 | 0.01686 | 0.5753 | 0.007628 | 1.327 | 0.0176 | 0.4207 | 0.005578 | 4.072 | 0.311 | 0.004124 | 0.776 | Rate constant with Cdk2 T182C (Cdk2(T182C) (C177A)): 0.05399; Rate constant with Cdk2 S181C (Cdk2(S181C) (C177A)): 0.01029
C=CC(=O)NC1C2C3CCC(C3)C12 (centres unmarked) [CA-097] | 0.00533 | 0.009838 | 0.00152 | 0.1544 | 0.001519 | 0.3735 | 0.2854 | 0.00407 | 0.1887 | 0.001856 | 0.1566 | 0.001541 | 0.8141 | 0.008009 | 0.5898 | 0.005802 | 1.447 | 0.3499 | 0.003442 | 0 | Rate constant with Cdk2 T182C (Cdk2(T182C) (C177A)): 0.01424
C=CC(=O)N1CC2CCCCCCC21 (centres unmarked) [CA-098] | 0.01614 | 0.02562 | 0.01499 | 0.9446 | 0.0242 | 2.745 | 0.9287 | 0.00546 | 0.5929 | 0.01519 | 0.8002 | 0.0205 | 3.196 | 0.08188 | 6.698 | 0.1716 | 4.766 | 0.3481 | 0.008918 | 0.8872 | Rate constant with Cdk2 T182C (Cdk2(T182C) (C177A)): 0.1221; Rate constant with Cdk2 S181C (Cdk2(S181C) (C177A)): 0.02273
C=CC(=O)N1CCC(c2nnc3n2CCC3)CC1 [CA-106] | 0.00227 | 0.003956 | 0.00145 | 0.5857 | 0.002317 | 0.9576 | 0.6367 | 0.00151 | 0 |  | 0 |  | 0.7543 | 0.002984 | 3.031 | 0.01199 | 3.971 | 0.2819 | 0.001115 | 1.69 | Rate constant with Cdk2 T182C (Cdk2(T182C) (C177A)): 0.01571; Rate constant with Cdk2 S181C (Cdk2(S181C) (C177A)): 0.006686
C=CC(=O)NCC1CCCN1S(=O)(=O)c1ccc(C)cc1 (centres unmarked) [CA-118] | 0.0028 | 0.006004 | 0.00698 | 1.749 | 0.0105 | 1.682 | 2.491 | 0.00415 | 0.6003 | 0.003604 | 0.1972 | 0.001184 | 0.4087 | 0.002454 | 61.33 | 0.3682 | 0 | 0.3071 | 0.001844 | 4.792 | Rate constant with Cdk2 S181C (Cdk2(S181C) (C177A)): 0.02877
